In US11952610B2, “Digital microbiology” (priority 2016, dated 2024):
Converted amounts (≈) assume the structure as drawn. “Also recorded” adds a separate entry of the source. Like-named read-outs stand apart in the source and are kept apart here.

What was measured:
[1] = test system: Escherichia coli (ATCC®25922™); test: Antimicrobial susceptibility testing in water-in-oil droplets, microscope reading; type: cell-based; details: for MIC: Escherichia coli, ATCC25922
Experimental: (§1) (at 30° C. for the C. albicans).

E. coli ATCC®25922 = details: cited from earlier work
S. aureus ATCC®29213™ [2] = test: Antimicrobial susceptibility testing in water-in-oil droplets, microscope reading; type: cell-based, Staphylococcus aureus
Experimental: as §1

S. aureus ATCC®29213™ [3] = details: cited from earlier work
E. faecalis ATCC®29212™ [4] = details: cited from earlier work
E. faecalis ATCC®29212™ [5] = test: Antimicrobial susceptibility testing in water-in-oil droplets, microscope reading; type: cell-based, Enterococcus faecalis
Experimental: as §1

[6] = test system: Aspergillus restrictus CECT 20807; test: Inhibition of mold growth outside the droplet aqueous phase, antifungal in oil phase; type: cell-based; details: 150 mg/L in the oil phase, 48 hours
MRSA ATCC 49476 = test: Droplets with labeled fibrinogen, BSA +/- cefoxitin: growth and labeling; type: cell-based, Staphylococcus aureus
Experimental: (§2) Fibrinogen (Sigma Aldrich) that binds to Staphylococcus aureus (S. aureus cells express surface proteins that promote attachment to host proteins such as fibronectin) was labeled using Kit Lynx LNK174PETR (Abd Serotec). […] After incubation at 37° C. for 3 hours, the samples were read using the ZOE™ Fluorescent Cell Imager (Bio-Rad Laboratories). The tables below show growth (visible) and labeling (fluorescence) obtained for the tested strains of MSSA and MRSA.

MSSA ATCC 29213 = test: as above; type: cell-based, Staphylococcus aureus
Experimental: as §2

MSSA ATCC 6538 = test: as above; type: cell-based, Staphylococcus aureus
Experimental: as §2

MRSA ATCC BAA 2312 = test: as above; type: cell-based, Staphylococcus aureus
Experimental: as §2

[7] = droplets at 37° C., read after 4 and/or 6 h
[8] = conjugate 1/200, BSA 0 + FOX 0, 3 h at 37° C.
[9] = conjugate 1/200, BSA 2.5% + FOX 0, 3 h at 37° C.
[10] = conjugate 1/200, BSA 2.5% + FOX 2 mg/L, 3 h at 37° C.
[11] = conjugate 1/200, BSA 0 + FOX 2 mg/L, 3 h at 37° C.

## CN(C)[C@@H]1C(O)=C(C(N)=O)C(=O)[C@@]2(O)C(O)=C3C(=O)c4c(O)cccc4[C@@](C)(O)[C@H]3C[C@@H]12 [Tetracycline]
[1]; 0.25 mg/L, reading time 6 h
  Growth in % of droplets: Growth in 20-30% of
[1]; droplets at 37° C., read after 4 and/or 6 h, read-out: Observed MIC
  MIC: 0.5 µg/mL (≈ 1.13 µM)

## COc1cc(Cc2cnc(N)nc2N)cc(OC)c1OC [Trimethoprim]
[1]; 0.125 mg/L, reading time 4 h
  Growth in droplets (observation in words): Limited growth in few
[1]; 0.25 mg/L, reading time 4 h
  Growth in droplets (observation in words): Limited growth in few
[1]; 0.25 mg/L, reading time 6 h
  Growth in % of droplets: Growth in 20-30% of
[1]; 0.5 mg/L, reading time 4 h
  Growth in droplets (observation in words): One or few small
[1]; 0.5 mg/L, reading time 6 h
  Growth in droplets (observation in words): Limited growth in few
[1]; 1 mg/L, reading time 4 h
  Growth in droplets (observation in words): No growth
[1]; 1 mg/L, reading time 6 h
  Growth in droplets (observation in words): Limited growth in few
[1]; 2 mg/L, reading time 4 h
  Growth in droplets (observation in words): No growth
[1]; 2 mg/L, reading time 6 h
  Growth in droplets (observation in words): No growth (one small
[1]; reading time 4 h, read-out: Observed MIC (4 h)
  MIC: 1 µg/mL (≈ 3.44 µM)
[1]; reading time 6 h, read-out: Observed MIC (6 h)
  MIC: 2 µg/mL (≈ 6.89 µM)
E. coli ATCC®25922
  Expected MIC (CLSI): 0.5 to 2 mg/L

## CN[C@H](CC(C)C)C(=O)N[C@H]1C(=O)N[C@@H](CC(N)=O)C(=O)N[C@H]2C(=O)N[C@H]3C(=O)N[C@H](C(=O)N[C@H](C(=O)O)c4cc(O)cc(O)c4-c4cc3ccc4O)[C@H](O)c3ccc(c(Cl)c3)Oc3cc2cc(c3O[C@@H]2O[C@H](CO)[C@@H](O)[C@H](O)[C@H]2O[C@H]2C[C@](C)(N)[C@H](O)[C@H](C)O2)Oc2ccc(cc2Cl)[C@H]1O [Vancomycin]
S. aureus ATCC®29213™ [2]; 0.25 mg/L, reading time 4 h
  Growth in % of droplets: 25-50% of droplets
S. aureus ATCC®29213™ [2]; 0.25 mg/L, reading time 6 h
  Growth in % of droplets: ~50% of the droplets
S. aureus ATCC®29213™ [2]; 0.5 mg/L, reading time 4 h
  Growth in droplets (observation in words): 1 droplet with cells
S. aureus ATCC®29213™ [2]; 0.5 mg/L, reading time 6 h
  Growth in % of droplets: ~10% of droplets
S. aureus ATCC®29213™ [2]; 1 mg/L, reading time 6 h
  Growth in droplets (observation in words): No growth
S. aureus ATCC®29213™ [3]
  Expected MIC (CLSI): 0.25 to 1 mg/L
E. faecalis ATCC®29212™ [4]
  Expected MIC (CLSI): 1 to 4 mg/L
E. faecalis ATCC®29212™ [5]; 0.25 mg/L, reading time 4 h
  Growth in % of droplets: Growth in 25-50%
E. faecalis ATCC®29212™ [5]; 0.25 mg/L, reading time 6 h
  Growth in % of droplets: Growth in 20-50%
E. faecalis ATCC®29212™ [5]; 0.5 mg/L, reading time 4 h
  Growth in % of droplets: Growth in 25-30%
E. faecalis ATCC®29212™ [5]; 0.5 mg/L, reading time 6 h
  Growth in % of droplets: ~30% of droplets
E. faecalis ATCC®29212™ [5]; 1 mg/L, reading time 4 h
  Growth in droplets (observation in words): Limited growth in
E. faecalis ATCC®29212™ [5]; 1 mg/L, reading time 6 h
  Growth in % of droplets: Growth in 20-30%
E. faecalis ATCC®29212™ [5]; 2 mg/L, reading time 4 h
  Growth in droplets (observation in words): No growth
E. faecalis ATCC®29212™ [5]; 2 mg/L, reading time 6 h
  Growth in droplets (observation in words): No growth

## O=C1OC2(c3cc(I)c(O)c(I)c3Oc3c2cc(I)c(O)c3I)c2c(Cl)c(Cl)c(Cl)c(Cl)c21 [rose bengal, 4,5,6,7-tetrachloro-2′,4′,5′,7′-tetraiodofluorescein]
[6]
  Mold growth outside the aqueous phase: the hyphae spreading was inhibited and mold growth was confined within the droplet; also recorded: inhibition of mold growth outside the aqueous phase

## Colistin
[1]; 0.125 mg/L, reading time 4 h
  Growth in % of droplets: Growth in 10-20% of
[1]; 0.25 mg/L, reading time 4 h
  Growth in droplets (observation in words): Limited growth in few
[1]; 0.25 mg/L, reading time 6 h
  Growth in % of droplets: Growth in 20-30% of
[1]; 0.5 mg/L, reading time 4 h
  Growth in droplets (observation in words): Growth in 1 droplet
[1]; 1 mg/L, reading time 6 h
  Growth in droplets (observation in words): No growth
[1]; [7]
  Observed MIC: 1 mg/L
E. coli ATCC®25922
  Expected MIC (CLSI): 0.5 to 2 mg/L

## Fibrinogen
MRSA ATCC 49476; [8]
  Labeling (fluorescence): Fluo +++
MRSA ATCC 49476; [9]
  Labeling (fluorescence): Fluo +++
MRSA ATCC 49476; [10]
  Labeling (fluorescence): Fluo +++
MSSA ATCC 29213; [8]
  Labeling (fluorescence): Fluo ++
MSSA ATCC 29213; [11]
  Labeling (fluorescence): BN (+)
MSSA ATCC 29213; [9]
  Labeling (fluorescence): Fluo +++
MSSA ATCC 29213; [10]
  Labeling (fluorescence): BN (+)
MSSA ATCC 6538; [8]
  Labeling (fluorescence): Fluo +++
MSSA ATCC 6538; [11]
  Labeling (fluorescence): BN (+)
MSSA ATCC 6538; [9]
  Labeling (fluorescence): Fluo +++
MSSA ATCC 6538; [10]
  Labeling (fluorescence): BN (+)
MRSA ATCC BAA 2312; [8]
  Labeling (fluorescence): BN (+)
MRSA ATCC BAA 2312; [11]
  Labeling (fluorescence): BN (+)
MRSA ATCC BAA 2312; [9]
  Labeling (fluorescence): Fluo +++
MRSA ATCC BAA 2312; [10]
  Labeling (fluorescence): Fluo +++

## Gentamycin
[1]; 0.125 mg/L, reading time 4 h
  Growth in % of droplets: ~50% of the droplets
[1]; 0.25 mg/L, reading time 4 h
  Growth in % of droplets: 30-50% of droplets
[1]; 0.5 mg/L, reading time 4 h
  Growth in % of droplets: ~30% of droplets
[1]; 0.5 mg/L, reading time 6 h
  Growth in % of droplets: 30-50% of droplets
[1]; 2 mg/L, reading time 4 h
  Growth in droplets (observation in words): No growth
[1]; 2 mg/L, reading time 6 h
  Growth in droplets (observation in words): No growth
[1]; [7]
  Observed MIC: 2 mg/L
E. coli ATCC®25922
  Expected MIC (CLSI): 0.25 to 1 mg/L
